Several values for one entry are separate records, joined by “and”; a condition that tells them apart may be missing. Equal values may be shown once. Read-outs that look alike come from different tables or passages of the source.
Assays:
human recombinant GCL = human recombinant GCL (Homo sapiens (Human), UniProt P48506); assay: GCL enzyme profiling assay (ADP-Glo luminescence); format: biochemical; details: human recombinant GCL 5 nM, 1 h preincubation with ATP
Protocol: The GCL enzyme assay was run in 50 mM HEPES, pH 7.5, containing 150 mM NaCl, 30 mM MgCl2, 0.5 mM EDTA, 1 mM DTT, 0.1 mg/mL BSA, and 0.02% or in the present case 0.2% F-127 in a total assay volume of 10 μL or 10 mL. Compound in pure DMSO was stamped in assay plates (Greiner black 384-well) or appropriate containers using a D300e digital dispenser (TECAN) and the final DMSO concentration was normalized to 1%. A 5 mL, or in the present case, 5 μL mixture of human recombinant GCL (final concentration: 5 nM) and ATP (final concentration: 0.6 mM) was added and the solution was incubated at room temperature (22° C.) for 1 h. The GCL enzyme reaction was initiated by addition of a 5 μL mixture of mono g-glutamate or in the present example, monosodium glutamate (final concentration: 1 mM) and a-aminobutyrate or α-aminobutyrate (final concentration: 1.2 mM). The reaction was stopped after 1 h or in the present case, 2 h by addition of 5 mL, or in the present case, 5 μL ADP GLO Reagent (Promega). The resulting solution was incubated for 2 h at room temperature. This was then followed by addition of 5 mL, or in the present case, 5 μL ADP GLO Detection. After incubation at room temperature for 30 min, the plates were read on a plate reader (PheraStar) using a luminescence protocol to quantify the GCL enzyme activity from each reaction solution. The data was analyzed using a four-parameter logistic equation to calculate IC50.

RKN cells = assay: RKN cell profiling assay (cell viability, CellTiter-Glo); format: cell-based; details: 96 h exposure
Summary of the method: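 Viability read by CellTiter-Glo luminescence after 96 h compound exposure (0.5% DMSO final) of cells plated at 1,000/well in 10% FBS F-12 and allowed 24 h attachment. Four-parameter fits gave EC50; rescue arms used ferrostatin-1, 1.5 μM, present from seeding.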

[1] = 96 h, read-out: Cell Killing EC50
[2] = read-out: GCL IC50 (mM), individual values in parentheses

Sequence of human recombinant GCL (P48506 whole entry): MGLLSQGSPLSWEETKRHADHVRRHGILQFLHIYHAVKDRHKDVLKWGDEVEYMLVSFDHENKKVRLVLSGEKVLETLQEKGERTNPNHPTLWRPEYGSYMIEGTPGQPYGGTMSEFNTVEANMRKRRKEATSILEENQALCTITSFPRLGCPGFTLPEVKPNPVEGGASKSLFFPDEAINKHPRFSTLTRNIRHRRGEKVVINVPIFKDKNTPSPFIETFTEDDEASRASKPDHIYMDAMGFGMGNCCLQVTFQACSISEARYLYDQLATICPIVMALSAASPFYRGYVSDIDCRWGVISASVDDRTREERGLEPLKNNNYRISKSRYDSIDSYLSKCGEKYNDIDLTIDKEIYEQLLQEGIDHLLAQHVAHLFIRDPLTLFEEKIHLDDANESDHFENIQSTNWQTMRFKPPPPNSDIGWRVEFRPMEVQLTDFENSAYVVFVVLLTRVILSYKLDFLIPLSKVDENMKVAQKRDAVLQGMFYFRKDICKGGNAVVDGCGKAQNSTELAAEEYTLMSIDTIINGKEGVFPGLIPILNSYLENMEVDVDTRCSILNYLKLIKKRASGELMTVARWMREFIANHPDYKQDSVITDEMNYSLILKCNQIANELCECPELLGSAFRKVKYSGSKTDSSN

IC50 (human recombinant GCL; read-out: GCL IC50) | IC50 (human recombinant GCL; [2]) | Structure (SMILES) | EC50 (RKN cells; [1]) | EC50 (RKN cells; 96 h, read-out: Cell Killing EC50 (mM), individual values in parentheses) | EC50 (RKN cells; read-out: Cell Killing EC50 (mM), individual values in parentheses)
0.02 to 2 mM |  | CC(C)OC(=O)[C@@H](N)CCS(=N)(=O)CCCC(F)(F)F (some centres unmarked) [Compound 88] | < 1 mM |  | 
> 2 mM |  | CCCC(C)(C)OC(=O)[C@@H](N)CCS(=N)(=O)CCCC(F)(F)F (some centres unmarked) [Compound 89] | < 1 mM |  | 
0.02 to 2 mM |  | CCCCOC(=O)[C@@H](N)CC[S@@](=N)(=O)CCCC(F)(F)F [Compound 90] | < 1 mM |  | 
0.02 to 2 mM |  | CCCCOC(=O)[C@@H](N)CCS(=N)(=O)CCc1ccccc1Cl (some centres unmarked) [Compound 91] | < 1 mM |  | 
0.02 to 2 mM |  | CCCCOC(=O)[C@@H](N)CCS(=N)(=O)CCc1cccc(F)c1C(F)(F)F (some centres unmarked) [Compound 92] | < 1 mM |  | 
0.02 to 2 mM |  | CC(C)(C)OC(=O)[C@@H](N)CC[S@@](=N)(=O)CCCC(F)(F)F [Compound 93] | < 1 mM |  | 
0.02 to 2 mM |  | CCCCOC(=O)[C@@H](N)CCS(=N)(=O)CCc1ccccc1C(F)(F)F (some centres unmarked) [Compound 94] | < 1 mM |  | 
0.02 to 2 mM |  | CCCCOC(=O)[C@@H](N)CCS(=N)(=O)CCC(C)C (some centres unmarked) [Compound 95] | < 1 mM |  | 
> 2 mM |  | CC(C)(C)CCS(=N)(=O)CC[C@H](N)C(=O)OC1CCCCC1 (some centres unmarked) [Compound 97] | < 1 mM |  | 
> 2 mM |  | CCCC(C)(C)OC(=O)[C@@H](N)CCS(=N)(=O)CCC(C)(C)C (some centres unmarked) [Compound 99] | < 1 mM |  | 
> 2 mM |  | CCCCNC(=O)[C@@H](N)CCS(=N)(=O)CCC(C)(C)C (stereo partly drawn) [Compound 100, (2S)-2-amino-N-butyl-4-(3,3-dimethylbutylsulfonimidoyl)butanamide] | < 1 mM |  | 
> 2 mM |  | CC(C)(C)CCS(=N)(=O)CC[C@H](N)C(=O)Nc1cccnc1 (stereo partly drawn) [Compound 101, (2S)-2-amino-4-(3,3-dimethylbutylsulfonimidoyl)-N-(pyridin-3-yl)butanamide] | < 1 mM |  | 
0.02 to 2 mM |  | CCCCS(=N)(=O)CC[C@H](N)C(=O)NS(C)(=O)=O (stereo partly drawn) [Compound 104, (2S)-2-amino-4-(butylsulfonimidoyl)-N-(methylsulfonyl)butanamide] | ≥ 1 mM |  | 
> 2 mM |  | CCCCS(=N)(=O)CC[C@H](N)C(N)=O (stereo partly drawn) [Compound 105, (2S)-2-amino-4-(butylsulfonimidoyl)butanamide] | ≥ 1 mM |  | 
> 2 mM |  | CCCCS(=N)(=O)CC[C@H](N)C(=O)NCC#N (some centres unmarked) [Compound 106] | ≥ 1 mM |  | 
> 2 mM |  | CCCCS(=N)(=O)CC[C@H](N)C(=O)NS(=O)(=O)C(F)(F)F (some centres unmarked) [Compound 108] | ≥ 1 mM |  | 
0.02 to 2 mM |  | CCCCS(=N)(=O)CC[C@H](N)C(=O)NS(=O)(=O)C1CC1 (some centres unmarked) [Compound 109] | ≥ 1 mM |  | 
0.02 to 2 mM |  | CC(C)(C)CCS(=N)(=O)CC[C@H](N)C(=O)NS(C)(=O)=O (some centres unmarked) [Compound 111] | ≥ 1 mM |  | 
0.02 to 2 mM |  | CCCCS(=N)(=O)CC[C@H](N)C(=O)NCC(N)=O (some centres unmarked) [Compound 112] | ≥ 1 mM |  | 

IC50 (human recombinant GCL; read-out: GCL IC50) | IC50 (human recombinant GCL; [2]) | Structure (SMILES) | EC50 (RKN cells; [1]) | EC50 (RKN cells; 96 h, read-out: Cell Killing EC50 (mM), individual values in parentheses) | EC50 (RKN cells; read-out: Cell Killing EC50 (mM), individual values in parentheses)
0.02 to 2 mM |  | CC(C)(C)CCS(=N)(=O)CC[C@H](N)C(=O)NC1CC1 (some centres unmarked) [Compound 113] | < 1 mM |  | 
> 2 mM |  | CC(C)(C)CCS(=N)(=O)CC[C@H](N)C(=O)NCC(F)(F)F (some centres unmarked) [Compound 114] | < 1 mM |  | 
> 2 mM |  | CN(C)C(=O)[C@@H](N)CCS(=N)(=O)CCC(C)(C)C (some centres unmarked) [Compound 115] | ≥ 1 mM |  | 
> 2 mM |  | CC(C)(C)CCS(=N)(=O)CC[C@H](N)C(=O)N1CCCC1 (some centres unmarked) [Compound 116] | ≥ 1 mM |  | 
> 2 mM |  | CC(C)(C)CCS(=N)(=O)CC[C@H](N)C(=O)NC(C)(C)C (some centres unmarked) [Compound 117] | ≥ 1 mM |  | 
> 2 mM |  | CC(C)(C)CCS(=N)(=O)CC[C@H](N)C(=O)Nc1ccccc1 (some centres unmarked) [Compound 118] | < 1 mM |  | 
> 2 mM |  | CC(C)(C)CCS(=N)(=O)CC[C@H](N)C(=O)NC1CCOCC1 (some centres unmarked) [Compound 120] | < 1 mM |  | 
> 2 mM |  | CC(C)(C)CCS(=N)(=O)CC[C@H](N)C(=O)NCc1ccccc1 (some centres unmarked) [Compound 122] | < 1 mM |  | 
> 2 mM and 0.02 to 2 mM | > 10 mM and 1.16 mM | CC(C)(C)CCS(=N)(=O)CC[C@H](N)C(=O)Nc1cc[nH]n1 (some centres unmarked) [Compound 123] | ≥ 1 mM |  | 
> 2 mM |  | CC(C)(C)CCS(=N)(=O)CC[C@H](N)C(=O)NCc1cncs1 (some centres unmarked) [Compound 124] | < 1 mM |  | 
> 2 mM |  | CC(C)(C)CCS(=N)(=O)CC[C@H](N)C(=O)NCCC(C)(C)O (some centres unmarked) [Compound 125] | < 1 mM |  | 
> 2 mM |  | CC(C)(C)CCS(=N)(=O)CC[C@H](N)C(=O)NC(CO)CO (some centres unmarked) [Compound 126] | ≥ 1 mM |  | 
> 2 mM |  | CC(C)(C)CCS(=N)(=O)CC[C@H](N)C(=O)Nc1ccncc1 (some centres unmarked) [Compound 127] | < 1 mM |  | 
0.02 to 2 mM |  | CC(C)(C)CCS(=N)(=O)CC[C@H](N)C(=O)Nc1ccccn1 (some centres unmarked) [Compound 128] | < 1 mM |  | 
> 2 mM |  | CC(C)(C)CCS(=N)(=O)CC[C@H](N)C(=O)NC1COC1 (some centres unmarked) [Compound 129] | < 1 mM |  | 
> 2 mM and 0.02 to 2 mM | > 10 mM and 1.73 mM | N=S(=O)(CCCC(F)(F)F)CC[C@H](N)C(=O)NC1CC1 (some centres unmarked) [Compound 130] | < 1 mM |  | 
> 2 mM |  | CCCCNC(=O)[C@@H](N)CCS(=N)(=O)CCCC(F)(F)F (some centres unmarked) [Compound 131] | < 1 mM |  | 
> 2 mM |  | N=S(=O)(CCCC(F)(F)F)CC[C@H](N)C(=O)Nc1ccccc1 (some centres unmarked) [Compound 132] | < 1 mM |  | 
0.02 to 2 mM |  | N=S(=O)(CCCC1CC1)CC[C@H](N)C(=O)O (stereo partly drawn) [Compound 134, (2S)-2-amino-4-(3-cyclopropylpropylsulfonimidoyl)butanoic acid] | ≥ 1 mM |  | 

IC50 (human recombinant GCL; read-out: GCL IC50) | IC50 (human recombinant GCL; [2]) | Structure (SMILES) | EC50 (RKN cells; [1]) | EC50 (RKN cells; 96 h, read-out: Cell Killing EC50 (mM), individual values in parentheses) | EC50 (RKN cells; read-out: Cell Killing EC50 (mM), individual values in parentheses)
0.02 to 2 mM |  | N=S(=O)(CC[C@H](N)C(=O)O)CCC1(O)CC1 (stereo partly drawn) [Compound 135, (2S)-2-amino-4-(2-(1-hydroxycyclopropyl)ethylsulfonimidoyl)butanoic acid] | < 1 mM |  | 
0.02 to 2 mM |  | N=S(=O)(CC[C@H](N)C(=O)O)CC(=O)C1CCCC1 (stereo partly drawn) [Compound 136, (2S)-2-amino-4-(2-cyclopentyl-2-oxoethylsulfonimidoyl)butanoic acid] | ≥ 1 mM |  | 
0.02 to 2 mM |  | N=S(=O)(CC[C@H](N)C(=O)O)CC(O)C1CCCC1 (some centres unmarked) [Compound 137] | < 1 mM | 1.47 mM | 0.92 mM
≤ 0.02 mM |  | N=[S@](=O)(CCCC(F)(F)F)CC[C@H](N)C(=O)O [Compound 139, (S)-2-amino-4-((S)-4,4,4-trifluorobutylsulfonimidoyl)butanoic acid] | < 1 mM |  | 
> 2 mM |  | N=S(=O)(CC[C@H](N)C(=O)O)Cc1ccccc1 (some centres unmarked) [Compound 140] | ≥ 1 mM |  | 
≤ 0.02 mM |  | N=S(=O)(CCC1CCCC1)CC[C@H](N)C(=O)O (some centres unmarked) [Compound 141] | < 1 mM |  | 
≤ 0.02 mM |  | N=S(=O)(CCC1CCCCC1)CC[C@H](N)C(=O)O (some centres unmarked) [Compound 142] | ≥ 1 mM |  | 
0.02 to 2 mM |  | N=S(=O)(CCC1C2CC3CC(C2)CC1C3)CC[C@H](N)C(=O)O (some centres unmarked) [Compound 143] | ≥ 1 mM |  | 
0.02 to 2 mM |  | CC#CCS(=N)(=O)CC[C@H](N)C(=O)O (some centres unmarked) [Compound 144] | ≥ 1 mM |  | 
> 2 mM |  | N=S(=O)(CC[C@H](N)C(=O)O)CCN1CCCC1=O (some centres unmarked) [Compound 145] | ≥ 1 mM |  | 
> 2 mM |  | CC(C)(C)[C@@H](N)CS(=N)(=O)CC[C@H](N)C(=O)O (some centres unmarked) [Compound 147] | ≥ 1 mM |  | 
0.02 to 2 mM |  | CC(C)(C)[C@H](N)CS(=N)(=O)CC[C@H](N)C(=O)O (some centres unmarked) [Compound 148] | ≥ 1 mM |  | 
≤ 0.02 mM |  | N=S(=O)(CCCC(F)(F)F)CC[C@H](N)C(=O)O (stereo partly drawn) [Compound 150, (2S)-2-amino-4-(4,4,4-trifluorobutylsulfonimidoyl)butanoic acid] | < 1 mM |  | 
0.02 to 2 mM |  | N#CC1(CCS(=N)(=O)CC[C@H](N)C(=O)O)CC1 (some centres unmarked) [Compound 151] | ≥ 1 mM |  | 
0.02 to 2 mM |  | CC(C)(CCS(=N)(=O)CC[C@H](N)C(=O)O)C(F)(F)F (some centres unmarked) [Compound 152] | < 1 mM |  | 
0.02 to 2 mM |  | N=S(=O)(CC[C@H](N)C(=O)O)CCC1(O)CCC1 (some centres unmarked) [Compound 153] | < 1 mM |  | 
≤ 0.02 mM |  | N=S(=O)(CCC(O)C(F)(F)F)CC[C@H](N)C(=O)O (stereo partly drawn) [Compound 154, (2S)-2-amino-4-(4,4,4-trifluoro-3-hydroxybutylsulfonimidoyl)butanoic acid] | < 1 mM |  | 
≤ 0.02 mM |  | COC(CCS(=N)(=O)CC[C@H](N)C(=O)O)C(F)(F)F (some centres unmarked) [Compound 155] | < 1 mM |  | 

Source: patent US20260034094A1, “COMPOSITIONS AND METHODS FOR INDUCING FERROPTOSIS” (Kojin Therapeutics, Inc., priority 2022, published 2026)
